Assay: bioavailability of the substance micronized with the device
Type: in vivo
Settings: after micronization with the device from the present invention
From the text: As an example of pharmaceutically active substance herein is mentioned anti-inflammatory substance alclometasone-17,21-dipropionate which was successfully micronized with the device from the present invention yielding the product of increased bioavailability.

CCC(=O)OCC(=O)[C@@]1(OC(=O)CC)[C@H](C)C[C@H]2[C@H]3[C@H]([C@@H](O)C[C@@]21C)[C@@]1(C)C=CC(=O)C=C1C[C@H]3Cl [alclometasone-17,21-dipropionate]
bioavailability of the micronized product: increased

From patent US8789785B2, “Device for micronization of solid materials and its use” (Lambano Trading Limited, priority 2010, dated 2014)
